According to ChEMBL document CHEMBL1201862, “PubChem BioAssay data set” (2004):
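96-well plates; 48 h exposure; 5 concentrations. Endpoints by linear interpolation between flanking doses. Not reached: highest tested concentration assigned. At the GI50, growth is halved.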 Activity calls are given as the source filed them. Cut-off read from the data, not from the text of the source: active = GI50 up to about 1.1 µM and inactive = higher.

How the values were obtained:
Experiment in all cases: NCI tumour cell line growth inhibition, 48 h
IGROV-1 = system: IGROV-1
EKVX = system: EKVX
OVCAR-8 = system: OVCAR-8
NCI-H522 = system: NCI-H522
HCT-15 = system: HCT-15
SNB-19 = system: SNB-19
HL-60 = system: HL-60
UO-31 = system: UO-31
HT-29 = system: HT-29
LOX IMVI = system: LOX IMVI
SF-268 = system: SF-268
A549 = system: A549
Malme-3M = system: Malme-3M
M19-MEL = system: M19-MEL
CCRF-CEM = system: CCRF-CEM
M14 = system: M14
ACHN = system: ACHN
DMS-114 = system: DMS-114

Row | SMILES | GI50 (IGROV-1) | GI50 (EKVX) | GI50 (OVCAR-8) | GI50 (NCI-H522) | GI50 (HCT-15) | GI50 (SNB-19) | GI50 (HL-60) | GI50 (UO-31) | GI50 (HT-29) | GI50 (LOX IMVI) | GI50 (SF-268) | GI50 (A549) | GI50 (Malme-3M) | GI50 (M19-MEL) | GI50 (CCRF-CEM) | GI50 (M14) | GI50 (ACHN) | GI50 (DMS-114)
1 | OC(c1ccccc1)C1CC2C=CC1C2 (stereo unspecified) | > 100 µM (inactive) | > 100 µM (inactive) | > 100 µM (inactive) | > 100 µM (inactive) | > 100 µM | > 100 µM (inactive) | > 100 µM (inactive) | > 100 µM (inactive) | > 100 µM (inactive) | > 100 µM (inactive) | > 100 µM (inactive) | > 100 µM (inactive) | > 100 µM (inactive) | > 100 µM (inactive) | > 100 µM (inactive) | > 100 µM (inactive) | > 100 µM (inactive) | > 100 µM (inactive)
2 | Cc1ccc(NC(=O)CC2Sc3ccccc3NC2=O)cc1C (stereo unspecified) | > 100 µM (inactive) | > 100 µM (inactive) | 46.8 µM (inactive) | > 100 µM (inactive) | 85.7 µM | > 100 µM (inactive) | 24.5 µM (inactive) | 73.6 µM (inactive) | 67.1 µM (inactive) | 38.6 µM (inactive) | 60 µM (inactive) | 41.2 µM (inactive) | > 100 µM (inactive) | > 100 µM (inactive) | 18.7 µM (inactive) | > 100 µM (inactive) | 54.8 µM (inactive) | 41.9 µM (inactive)
3 | CN1C(=O)CCC1(O)C1C=CC=CC1 (stereo unspecified) | > 100 µM (inactive) | – | > 100 µM (inactive) | > 100 µM (inactive) | > 100 µM | > 100 µM (inactive) | > 100 µM (inactive) | > 100 µM (inactive) | > 100 µM (inactive) | > 100 µM (inactive) | > 100 µM (inactive) | > 100 µM (inactive) | > 100 µM (inactive) | > 100 µM (inactive) | > 100 µM (inactive) | > 100 µM (inactive) | > 100 µM (inactive) | > 100 µM (inactive)
4 | OC12c3ccccc3C1CCCCCCCCCC21OCCCO1 (stereo unspecified) | > 100 µM (inactive) | > 100 µM (inactive) | > 100 µM (inactive) | > 100 µM (inactive) | 5.15 µM | > 100 µM (inactive) | 4.15 µM (inactive) | > 100 µM (inactive) | > 100 µM (inactive) | > 100 µM (inactive) | > 100 µM (inactive) | > 100 µM (inactive) | > 100 µM (inactive) | > 100 µM (inactive) | > 100 µM (inactive) | > 100 µM (inactive) | – | > 100 µM (inactive)
5 | CC(=O)Nc1ccc(-c2nnc(SCC(=O)Nc3cccc([N+](=O)[O-])c3)o2)cc1 | 4.11 µM (inactive) | – | 16.2 µM (inactive) | 10.1 µM (inactive) | 15.4 µM | – | 10.6 µM (inactive) | 13.2 µM (inactive) | 16.1 µM (inactive) | 8.77 µM (inactive) | 16.1 µM (inactive) | 17.5 µM (inactive) | 11.6 µM (inactive) | 15.1 µM (inactive) | 9.1 µM (inactive) | 16.1 µM (inactive) | 15.4 µM (inactive) | 10.2 µM (inactive)
6 | Nc1c(Cl)ncnc1NCCCNc1ncnc(Cl)c1N | > 100 µM (inactive) | > 100 µM (inactive) | > 100 µM (inactive) | 69.3 µM (inactive) | > 100 µM | > 100 µM (inactive) | > 100 µM (inactive) | 95.3 µM (inactive) | > 100 µM (inactive) | > 100 µM (inactive) | > 100 µM (inactive) | > 100 µM (inactive) | – | > 100 µM (inactive) | > 100 µM (inactive) | > 100 µM (inactive) | > 100 µM (inactive) | > 100 µM (inactive)
7 | O=C(CCN1CCN(c2cccc(Cl)c2)CC1)N1CCc2c([nH]c3ccccc23)C1c1cccnc1 (stereo unspecified) | 7.87 µM (inactive) | 8.73 µM (inactive) | 6.55 µM (inactive) | 4.19 µM (inactive) | 3.4 µM | 6.82 µM (inactive) | 2.54 µM (inactive) | 2.98 µM (inactive) | 3.56 µM (inactive) | 3.52 µM (inactive) | – | 6.28 µM (inactive) | 7.71 µM (inactive) | 13.3 µM (inactive) | 5.56 µM (inactive) | 3.37 µM (inactive) | 4.78 µM (inactive) | 6.65 µM (inactive)
8 | OC(CCNC12CC3CC(CC(C3)C1)C2)c1ccccc1 (stereo unspecified) | 72.1 µM (inactive) | > 100 µM (inactive) | > 100 µM (inactive) | > 100 µM (inactive) | > 100 µM | > 100 µM (inactive) | > 100 µM (inactive) | 43.9 µM (inactive) | 35.3 µM (inactive) | – | > 100 µM (inactive) | > 100 µM (inactive) | > 100 µM (inactive) | > 100 µM (inactive) | 60.5 µM (inactive) | 40.4 µM (inactive) | > 100 µM (inactive) | 57.9 µM (inactive)
9 | O=S1(=O)OCCOS(=O)(=O)C1Br | > 100 µM (inactive) | – | > 100 µM (inactive) | > 100 µM (inactive) | – | 64.9 µM (inactive) | > 100 µM (inactive) | 39.1 µM (inactive) | > 100 µM (inactive) | – | > 100 µM (inactive) | > 100 µM (inactive) | > 100 µM (inactive) | > 100 µM (inactive) | > 100 µM (inactive) | > 100 µM (inactive) | – | > 100 µM (inactive)
10 | O=C1CC2CCCCC2=C1O (stereo unspecified) | > 100 µM (inactive) | > 100 µM (inactive) | > 100 µM (inactive) | > 100 µM (inactive) | > 100 µM | > 100 µM (inactive) | > 100 µM (inactive) | > 100 µM (inactive) | – | > 100 µM (inactive) | > 100 µM (inactive) | > 100 µM (inactive) | > 100 µM (inactive) | > 100 µM (inactive) | > 100 µM (inactive) | – | > 100 µM (inactive) | > 100 µM (inactive)
11 | Sc1nnc(COc2ccc(Cl)cc2Cl)[nH]1 | > 100 µM (inactive) | > 100 µM (inactive) | > 100 µM (inactive) | – | > 100 µM | > 100 µM (inactive) | 26.4 µM (inactive) | > 100 µM (inactive) | > 100 µM (inactive) | > 100 µM (inactive) | > 100 µM (inactive) | > 100 µM (inactive) | > 100 µM (inactive) | > 100 µM (inactive) | > 100 µM (inactive) | > 100 µM (inactive) | > 100 µM (inactive) | > 100 µM (inactive)
12 | C#CC[C@]12CC(=O)CC[C@H]1CC1(C2)OCCO1 | > 100 µM (inactive) | – | > 100 µM (inactive) | > 100 µM (inactive) | > 100 µM | > 100 µM (inactive) | > 100 µM (inactive) | > 100 µM (inactive) | – | – | > 100 µM (inactive) | > 100 µM (inactive) | > 100 µM (inactive) | > 100 µM (inactive) | > 100 µM (inactive) | > 100 µM (inactive) | > 100 µM (inactive) | > 100 µM (inactive)
13 | N=C(N)SCCc1cn2ccccc2n1 | – | > 100 µM (inactive) | > 100 µM (inactive) | > 100 µM (inactive) | > 100 µM | > 100 µM (inactive) | > 100 µM (inactive) | > 100 µM (inactive) | > 100 µM (inactive) | > 100 µM (inactive) | > 100 µM (inactive) | > 100 µM (inactive) | > 100 µM (inactive) | > 100 µM (inactive) | > 100 µM (inactive) | > 100 µM (inactive) | > 100 µM (inactive) | > 100 µM (inactive)
